Test results as given in patent US20040142971A1, “BENZOTHIOPHENE COMPOUNDS HAVING ANTIINFECTIVE ACTIVITY” (GeneSoft, Inc., priority 2001, published 2004).

Key:
Assay in all cases: MIC, NCCLS broth microdilution
S. aureus ATCC 33591 = type: cell-based, Staphylococcus aureus; conditions: E = S. aureus ATCC 33591
Description: (§1) In vitro biological activity data were collected for a variety of microorganisms, including Bacillus cereus (ATCC 11778), Staphylococcus aureus (ATCC 27660 (a methicillin resistant strain (MRSA), ATCC 33591 and ATCC 43300); ATCC 13709, a methicillin sensitive strain (MSSA)); Streptococcus pneumoniae (ATCC 51422, a penicillin resistant strain (PRSP)), Enterococcus faecium (ATCC 51559, a vancomycin resistant strain (VRE)), and Staphylococcus epidermidis (ATCC 700586, a methycillin resistant strain (MRSE)). Additionally, antifungal activity data were collected for Candida albicans (ATCC 38247). Minimal inhibition concentrations (MIC's) were determined using the National Committee for Clinical Laboratory Standards (NCCLS) broth microdilution assay in microtiter plates, as set forth in: (1) the guidelines of the National Committee for Clinical Laboratory Standards (NCCLS) Document M7-A4 (NCCLS, 1997); (2) the guidelines of the National Committee for Clinical Laboratory Standards (NCCLS) Document M11-A4 (NCCLS, 1997); and (3) the guidelines and reference method of the National Committee for Clinical Laboratory Standards (NCCLS) Document M27-T (NCCLS, 1995). For antifungal essays, the method recommended in Murray, PR., 1995 Manual of Clinical Microbiology (ASM Press, Washington, D.C.), was employed.

[1] = system: S. aureus ATCC 13709 (methicillin sensitive strain, MSSA); type: cell-based, Staphylococcus aureus; conditions: C = S. aureus ATCC 13709
Description: as §1

[2] = system: S. aureus ATCC 27660 (methicillin resistant strain, MRSA); type: cell-based, Staphylococcus aureus; conditions: D = S. aureus ATCC 27660
Description: as §1

B. Cereus ATCC 11778 = type: cell-based, Bacillus cereus; conditions: A = B. Cereus ATCC 11778
Description: as §1

[3] = system: S. pneumoniae ATCC 51422 (penicillin resistant strain, PRSP); type: cell-based, Streptococcus pneumoniae; conditions: H = S. pneumoniae ATCC 51422
Description: as §1

[4] = system: S. epidermidis ATCC 700586 (methycillin resistant strain, MRSE); type: cell-based, Staphylococcus epidermidis; conditions: G = S. epidermidis ATCC 700586
Description: as §1

[5] = system: E. faecium ATCC 51559 (vancomycin resistant strain, VRE); type: cell-based, Enterococcus faecium; conditions: B = E. faecium ATCC 51559
Description: as §1

SMILES	Minimum Inhibitory Concentration (MIC) (S. aureus ATCC 33591)	Minimum Inhibitory Concentration (MIC) [1]	Minimum Inhibitory Concentration (MIC) [2]	Minimum Inhibitory Concentration (MIC) (B. Cereus ATCC 11778)	Minimum Inhibitory Concentration (MIC) [3]	Minimum Inhibitory Concentration (MIC) [4]	Minimum Inhibitory Concentration (MIC) [5]
Cn1cc(NC(=O)c2cc(NC(=O)c3cc(NC(=O)c4cc5ccccc5cn4)c[nH]3)cn2C)cc1C(=O)NCCc1ccccn1 [Ib-70]	+++ (+++ = MIC ≦ 4)	+++ (+++ = MIC ≦ 4)	+++ (+++ = MIC ≦ 4)	+++ (+++ = MIC ≦ 4)	+++ (+++ = MIC ≦ 4)	+++ (+++ = MIC ≦ 4)	+++ (+++ = MIC ≦ 4)
Cn1cc(NC(=O)c2cc(NC(=O)c3cc(NC(=O)c4cc5ccccc5cn4)c[nH]3)cn2C)cc1C(=O)NCCN1CCC(F)CC1 [Ib-71]	+++ (+++ = MIC ≦ 4)	+++ (+++ = MIC ≦ 4)	+++ (+++ = MIC ≦ 4)	+++ (+++ = MIC ≦ 4)	+++ (+++ = MIC ≦ 4)	+++ (+++ = MIC ≦ 4)	+++ (+++ = MIC ≦ 4)
COCn1cc(NC(=O)c2cc3ccccc3cn2)cc1C(=O)Nc1cc(C(=O)Nc2cc(C(=O)NCCN3CCOCC3)n(C)c2)n(C)c1 [Ib-72]	+++ (+++ = MIC ≦ 4)	+++ (+++ = MIC ≦ 4)	+++ (+++ = MIC ≦ 4)	+++ (+++ = MIC ≦ 4)	+ (+ = MIC from 12 to 32, inclusive)	+++ (+++ = MIC ≦ 4)	+++ (+++ = MIC ≦ 4)
CC(=O)[O-].Cc1cc(NC(=O)c2cc(NC(=O)c3cc(NC(=O)c4cc5ccccc5cn4)cn3C)cn2CCC[N+](C)(C)C)sn1 [Ib-74]	+++ (+++ = MIC ≦ 4)	+++ (+++ = MIC ≦ 4)	+++ (+++ = MIC ≦ 4)	+++ (+++ = MIC ≦ 4)	+++ (+++ = MIC ≦ 4)	+++ (+++ = MIC ≦ 4)	+++ (+++ = MIC ≦ 4)
Cc1cc(NC(=O)c2cc(NC(=O)c3nc(NC(=O)c4cc5ccccc5cn4)cn3C)cn2CCN2CCOCC2)sn1 [Ib-77]	+++ (+++ = MIC ≦ 4)	+++ (+++ = MIC ≦ 4)	+++ (+++ = MIC ≦ 4)	+++ (+++ = MIC ≦ 4)	+++ (+++ = MIC ≦ 4)	+++ (+++ = MIC ≦ 4)	+++ (+++ = MIC ≦ 4)
